Laboratory results from patent US20260200926A1, “TREM2 MODULATORS” (Muna Therapeutics ApS, priority 2022, published 2026).
Where two headings read alike, the source gives them in different places.

Target: T1, Human TREM2 (Homo sapiens, UniProt Q9NZC2)
T1 construct: expressed in transfected cells
Assay: Human TREM2 activity: cellular phosphorylation of Syk (AlphaLISA SureFire Ultra p-SYK) in HEK293/DAP12+TREM2 stable cell line
Format: cell-based
Settings: for EC50: phospho-Syk AlphaLISA signal, HEK293/DAP12+TREM2 cells, concentration giving 50% of maximal response, read-out: EC50
Description: Human TREM2, in vitro Measurement of Triggering Receptor Expressed on Myeloid Cells 2 activity using cellular phosphorylation of Spleen Tyrosine Kinase (“Syk”) Assay
HEK-293 cells were co-transfected with separate plasmids encoding TREM2 and DAP12 to generate a stable cell line. After antibiotic selection, functional clone pool analysis and two successive limiting dilutions, the final clone “HEK293/DAP12+TREM2” underwent a qPCR analysis and a pharmacological validation.
TREM2 signaling through DAP12 was monitored in the HEK293/DAP12+TREM2 stable cell line by measuring the phosphorylation levels of the Syk kinase using the commercially available AlphaLISA SureFire Ultra p-SYK (Tyr525/526) Assay Kit (PerkinElmer #ALSU-PSYK), based on the Perkin Elmer AlphaScreen/AlphaLISA technology.
Compounds are transferred to the test plate and tested in full dose response, 8 concentrations in quadruplicate data points. Compound serial dilutions were performed at Cybi-Felix instrument in 100% DMSO and the dose response curves were assembled in automated fashion in 384MPT at Hamilton STARlet instrument. All the stock solutions were prepared at 20 mM in 100% DMSO. For compounds testing, the starting concentration was 100 μM, dilution steps 1:6. […] Finally, a 384MPT reformatted for all compounds at 8 concentrations, quadruplicates, was used as “mother to child” process with a CyBi®-Well dispenser in which 1 μL of each compound was moved into a destination plate pre-filled with 65.6 μL of EMEM cell culture medium (BIOWHITTAKER_cat.BE12-125F), thus obtaining 3× concentrated compounds working solution. In columns 1-2 and 23-24 the control wells were added. In particular, dose response curves of a reference control agonist were included in column 1 and 24 as reference control agonist (Reference control agonists used include Human TREM2 polyclonal Antibody AF1828: R&D Systems; Human TREM2 monoclonal Antibody MAB1828: R&D Systems). The dose response curves were tested starting at 30 μM, dilution step 1:6. Both “source” compound plate and “destination” compound plate were barcoded and a relationship between the two plates was thus generated.
HEK293/DAP12+TREM2 cells were cultured in EMEM medium supplemented with IX Penicillin/Streptomycin (BIOWHITTAKER_cat.DE17-602E), ULTRAGLUTAMINE I 200 mM, 10% Fetal Bovine Serum plus antibiotics referred to as “HEK293 Culture Medium”. The day before the experiment, cells were detached by gentle wash with DPBS, followed by 5 min incubation at 37° C. with Trypsin solution. Cells were then diluted in HEK293 Culture Medium without antibiotics, counted and seeded into 384-well poly-D-Lysine coated microplates black/clear bottom (GREINER 781946) at a density of 10,000 cells/well in 25 μL/well by the use of a MATRIX WellMate dispenser. Plates were placed into a humidified cell culture incubator at 37° C. with 5% CO2 until the experimental day. 20-24 hours after seeding mature medium was removed and replaced with 10 μL/well of EMEM cell medium supplemented with 0.1% Pluronic F-68 non-ionic surfactant (Thermofisher, 24040032), referred to as “Assay Buffer”, using the CyBi®-Well instrument. Then 5 μL/well of Assay Buffer containing 3× concentrated test compounds or the reference control agonist (in 0.5% final DMSO concentration) were added to the cells with the CyBi®-Well instrument. Cell plates were incubated for 30 min into a humidified cell culture incubator at 37° C. with 5% CO2·, then the medium was removed by manually discard. 20 μL/well of lysis buffer were dispensed using the CyBi®-Well instrument and plates were incubated for 10 min at room temperature on a plate shaker (350 rpm). Then, 10 μL/well of lysate were transferred to the Alpha plates. The CyBi®-Well instrument was used to dispense 5 μL/well of AlphaLISA Acceptor Bead Solution in IX Immunoassay buffer (Perkin Elmer AL000F). Then the plates were sealed with Heat sealing foil, shaked for 2 minutes (350 rpm) and incubated for 1 hour at room temperature.

[1] = HEK293, maximal response relative to reference agonist example 1B (remaining examples), read-out: Emax
[2] = HEK293, maximal response relative to reference agonist human TREM2 MAB1828 (examples 1, 1A and 1B), read-out: Emax

T1 sequence (Q9NZC2 19-230): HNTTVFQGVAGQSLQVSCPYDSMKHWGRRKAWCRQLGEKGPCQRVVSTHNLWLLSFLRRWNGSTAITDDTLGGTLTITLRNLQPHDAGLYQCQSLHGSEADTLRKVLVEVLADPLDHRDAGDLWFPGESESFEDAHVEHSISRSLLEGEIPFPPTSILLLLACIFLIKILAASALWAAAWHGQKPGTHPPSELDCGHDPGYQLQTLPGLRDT
T1 sequence (O43914 22-113 partner): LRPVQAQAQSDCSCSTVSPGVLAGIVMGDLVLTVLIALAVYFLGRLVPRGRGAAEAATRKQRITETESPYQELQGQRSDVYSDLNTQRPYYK

| Emax (maximal response relative to reference agonist example 1B (remaining examples)) | EC50 | Emax [1] | Emax [2] | Compound |
| --- | --- | --- | --- | --- |
| ++ (75-110%) | 10 to 100 nM | – | – | 6-((2R,4S)-2-(1-cyclopropyl-1H-pyrazol-4-yl)tetrahydro-2H-pyran-4-yl)-8-(2-fluoro-4-(trifluoromethyl)phenyl)-2,3-dimethylquinazolin-4 (3H)-one [Example 120B] |
| – | 100 to 1000 nM | 75 to 110% | – | Cc1nc2c(-c3ccc(Cl)cc3F)nc([C@H]3CCO[C@@H](c4cnn(C5CC5)c4)C3)nc2c(=O)n1C (racemic) [Example 14, 8-(4-chloro-2-fluorophenyl)-6-((2R,4S)-2-(1-cyclopropyl-1H-pyrazol-4-yl)tetrahydro-2H-pyran-4-yl)-2,3-dimethylpyrimido[5,4-d]pyrimidin-4 (3H)-one] |
| – | 10 to 100 nM | < 75% | – | Cc1nc2c(-c3ccc(C(F)(F)F)nc3)nc(N3CCOC(c4cnn(C5CC5)c4)C3)nc2c(=O)n1C (racemic) [Example 19, 6-(2-(1-cyclopropyl-1H-pyrazol-4-yl)morpholino)-2,3-dimethyl-8-(6-(trifluoromethyl)pyridin-3-yl)pyrimido[5,4-d]pyrimidin-4 (3H)-one] |
| – | 100 to 1000 nM | 75 to 110% | – | Cc1ncc([C@H]2C[C@@H](c3nc(-c4ccc(Cl)cc4F)c4nc(C)n(C)c(=O)c4n3)CCO2)cn1 (racemic) [Example 37, 8-(4-chloro-2-fluorophenyl)-2,3-dimethyl-6-((2R,4S)-2-(2-methylpyrimidin-5-yl)tetrahydro-2H-pyran-4-yl)pyrimido[5,4-d]pyrimidin-4 (3H)-one] |
| – | 100 to 1000 nM | < 75% | – | Cc1nc2c(-c3ccc(F)cc3F)nc(N3CC(C)OC(c4cnn(C5CC5)c4)C3)nc2c(=O)n1C (racemic) [Example 177C, 6-(2-(1-cyclopropyl-1H-pyrazol-4-yl)-6-methylmorpholino)-8-(2,4-difluorophenyl)-2,3-dimethylpyrimido[5,4-d]pyrimidin-4 (3H)-one] |
| – | 100 to 1000 nM | – | 75 to 110% | Cc1nc2c(-c3ccc(Cl)cc3F)nc(N3CCO[C@H](c4cnn(C)c4)C3)nc2c(=O)n1C (single isomer, unassigned) [Example 1A] |
| – | 10 to 100 nM | – | > 110% | Cc1nc2c(-c3ccc(Cl)cc3F)nc(N3CCO[C@@H](c4cnn(C)c4)C3)nc2c(=O)n1C (single isomer, unassigned) [Example 1B] |
| – | 10 to 100 nM | 75 to 110% | – | Cc1nc2c(-c3ccc(C(F)(F)F)cc3F)nc(N3CCO[C@H](c4cnn(C5CC5)c4)C3)nc2c(=O)n1C (single isomer, unassigned) [Example 20A] |
| – | 1 to 10 nM | 75 to 110% | – | Cc1nc2c(-c3ccc(C(F)(F)F)cc3F)nc(N3CCO[C@@H](c4cnn(C5CC5)c4)C3)nc2c(=O)n1C (single isomer, unassigned) [Example 20B] |
| – | 10 to 100 nM | 75 to 110% | – | Cc1cc([C@@H]2CN(c3nc(-c4ccc(C(F)(F)F)cc4F)c4nc(C)n(C)c(=O)c4n3)CCO2)ccn1 (single isomer, unassigned) [Example 21A] |
| – | < 1 nM | 75 to 110% | – | Cc1cc([C@H]2CN(c3nc(-c4ccc(C(F)(F)F)cc4F)c4nc(C)n(C)c(=O)c4n3)CCO2)ccn1 (single isomer, unassigned) [Example 21B] |
| – | 100 to 1000 nM | 75 to 110% | – | Cc1cc([C@@H]2CN(c3nc(-c4ccc(C(F)(F)F)nc4)c4nc(C)n(C)c(=O)c4n3)CCO2)ccn1 (single isomer, unassigned) [Example 22A] |
| – | 1 to 10 nM | 75 to 110% | – | Cc1cc([C@H]2CN(c3nc(-c4ccc(C(F)(F)F)nc4)c4nc(C)n(C)c(=O)c4n3)CCO2)ccn1 (single isomer, unassigned) [Example 22B] |
| – | 10 to 100 nM | < 75% | – | Cc1cc([C@@H]2CN(c3nc(-c4ccc(Cl)cc4F)c4nc(C)n(C)c(=O)c4n3)CCO2)ccn1 (single isomer, unassigned) [Example 23A] |
| – | 1 to 10 nM | 75 to 110% | – | Cc1cc([C@H]2CN(c3nc(-c4ccc(Cl)cc4F)c4nc(C)n(C)c(=O)c4n3)CCO2)ccn1 (single isomer, unassigned) [Example 23B] |
| – | 1 to 10 nM | 75 to 110% | – | Cc1nc2c(-c3ccc(Cl)cc3F)nc([C@@H]3CCO[C@H](c4cnn(C5CC5)c4)C3)nc2c(=O)n1C (single isomer, unassigned) [Example 24A] |
| – | 100 to 1000 nM | < 75% | – | Cc1nc2c(-c3ccc(Cl)cc3F)nc([C@H]3CCO[C@@H](c4cnn(C5CC5)c4)C3)nc2c(=O)n1C (single isomer, unassigned) [Example 24B] |
| – | 10 to 100 nM | < 75% | – | Cc1nc2c(-c3ccc(C(F)(F)F)cc3F)nc(N3CCO[C@H](c4cnn(C)c4)C3)nc2c(=O)n1C (single isomer, unassigned) [Example 25A] |
| – | 10 to 100 nM | < 75% | – | Cc1nc2c(-c3ccc(C(F)(F)F)cc3F)nc(N3CCO[C@@H](c4cnn(C)c4)C3)nc2c(=O)n1C (single isomer, unassigned) [Example 25B] |
| – | 10 to 100 nM | 75 to 110% | – | Cc1nc2c(-c3ccc(Cl)cc3F)nc(N3CCO[C@H](c4cnn(C5CC5)c4)C3)nc2c(=O)n1C (single isomer, unassigned) [Example 26A] |
| – | 1 to 10 nM | 75 to 110% | – | Cc1nc2c(-c3ccc(Cl)cc3F)nc(N3CCO[C@@H](c4cnn(C5CC5)c4)C3)nc2c(=O)n1C (single isomer, unassigned) [Example 26B] |
| – | 10 to 100 nM | < 75% | – | Cc1nc2c(-c3cc(F)c(F)cc3F)nc(N3CCO[C@H](c4cnn(C)c4)C3)nc2c(=O)n1C (single isomer, unassigned) [Example 27A] |
| – | 10 to 100 nM | 75 to 110% | – | Cc1nc2c(-c3cc(F)c(F)cc3F)nc(N3CCO[C@@H](c4cnn(C)c4)C3)nc2c(=O)n1C (single isomer, unassigned) [Example 27B] |
| – | > 1000 nM | 75 to 110% | – | Cc1nc2c(-c3ccc(C(F)(F)F)nc3)nc(N3CCO[C@H](c4cnn(C)c4)C3)nc2c(=O)n1C (single isomer, unassigned) [Example 28A] |
| – | 10 to 100 nM | 75 to 110% | – | Cc1nc2c(-c3ccc(C(F)(F)F)nc3)nc(N3CCO[C@@H](c4cnn(C)c4)C3)nc2c(=O)n1C (single isomer, unassigned) [Example 28B] |
| – | 100 to 1000 nM | < 75% | – | Cc1nc2c(-c3cc(F)c(F)cc3F)nc([C@@H]3CCO[C@H](c4cnn(C)c4)C3)nc2c(=O)n1C (single isomer, unassigned) [Example 38A] |
| – | 10 to 100 nM | 75 to 110% | – | Cc1nc2c(-c3ccc(C(F)(F)F)cc3F)nc([C@@H]3CCO[C@H](c4cnn(C)c4)C3)nc2c(=O)n1C (single isomer, unassigned) [Example 65] |
| – | > 1000 nM | 75 to 110% | – | Cc1nc2c(-c3ccc(C(F)(F)F)cc3F)nc([C@H]3CCO[C@@H](c4cnn(C)c4)C3)nc2c(=O)n1C (single isomer, unassigned) [Example 66] |
| – | 100 to 1000 nM | > 110% | – | Cc1nc2c(-c3ccc(Cl)cc3F)nc([C@@H]3CCO[C@H](c4cnn(C)c4)C3)nc2c(=O)n1C (single isomer, unassigned) [Example 67] |
| – | > 1000 nM | 75 to 110% | – | Cc1nc2c(-c3ccc(Cl)cc3F)nc([C@H]3CCO[C@@H](c4cnn(C)c4)C3)nc2c(=O)n1C (single isomer, unassigned) [Example 68] |
